Test results taken from US12134610B2, “Somatostatin subtype-2 receptor (SST2R) targeted therapeutics and uses thereof” (priority 2022, dated 2024).
Like-named read-outs stand apart in the source and are kept apart here. Starred links: 1 amine or outer side, 2 acyl side, 3 side chain; linkers in the order of their positions; H or OH if unused. Non-standard residues stand in square brackets, D forms with d. Residues, ends and D or L forms follow the SMILES beside them. *: point of attachment. PABC(3-O-βDGlc) = O=C(OCc1ccc(N[*:1])c(O[C@@H]2O[C@H](CO)[C@@H](O)[C@H](O)[C@H]2O)c1)[*:2]; X1 = Cc1cc(F)cc(-c2cnc(NCCNC(=O)CCOCCC(=O)*)c(-c3nc4ccc(Cl)cc4[nH]3)c2N2CCC(N)CC2)c1; Dolaproine = CO[C@@H]([C@@H]1CCCN1)[C@@H](C)C(=O)O; Dil = CC[C@H](C)[C@H](NC)[C@@H](CC(=O)O)OC; PABC = O=C(OCc1ccc(N[*:1])cc1)[*:2]; X2 = C[C@@H](N*)[C@@H](O)c1ccccc1; Cit = NC(=O)NCCC[C@H](N)C(=O)O; NMeV = CN[C@H](C(=O)O)C(C)C

Columns and labels:
Assay type in all cases: cell-based
[1] = target: T1, human somatostatin receptor subtype 2 (Homo sapiens, UniProt P30874); assay: Functional cAMP assay for SSTR2 agonists (HTRF) in CHO-K1 cells; conditions: CHO-K1 cells stably expressing human SST2, 20 min
T1 construct: expressed in transfected cells
T1 sequence (P30874 whole entry): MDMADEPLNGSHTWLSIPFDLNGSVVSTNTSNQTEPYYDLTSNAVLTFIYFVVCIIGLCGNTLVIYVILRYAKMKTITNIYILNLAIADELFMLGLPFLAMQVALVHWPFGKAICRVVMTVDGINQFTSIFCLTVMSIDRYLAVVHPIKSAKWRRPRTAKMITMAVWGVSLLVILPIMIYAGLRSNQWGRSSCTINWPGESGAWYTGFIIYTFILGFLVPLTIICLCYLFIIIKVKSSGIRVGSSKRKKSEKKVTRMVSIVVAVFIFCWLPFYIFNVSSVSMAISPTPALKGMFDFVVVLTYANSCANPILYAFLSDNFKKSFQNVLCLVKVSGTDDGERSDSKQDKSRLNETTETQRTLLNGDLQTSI
How it was run: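 Agonism scored as loss of NKH477 (1.6 μM)-driven cAMP, with IBMX present, after 20 min, 37° C. exposure of stably transfected CHO-K1 cells to compound dilutions (typically 0-10,000 nM). Lysates read by time-resolved FRET; cAMP interpolated from standard curve and EC50 derived.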

[2] = target: T2, SST2 (Homo sapiens, UniProt P30874); assay: PathHunter CHO-K1 SST2 internalization assay; conditions: PathHunter CHO-K1 SST2, 90 min
T2 construct: host or cells: PathHunter CHO-K1 SST2 cells
T2 sequence (P30874 whole entry): as above
How it was run: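 IC50 comes from four-parameter curves on background-corrected duplicates of Beta-Glo luminescence, read after 60 min at room temperature in the dark. Before that, CHO-K1 SST2 internalization cells (48 h post-seeding) received SMDC as eleven threefold dilutions, 10 uM highest final, for 90 min at 37 C.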

[3] = test system: NCI-H524 (ATCC) human small cell lung cancer cells
How it was run: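 CellTiter-Glo luminescence after a 2 h SMDC pulse (top dose 1 uM, 2-fold dilutions, 11 points), medium wash, then 70 h recovery. Cells were seeded at 5,000/well and dosed 24 h later. % inhibition vs control gave IC50 via four-parameter fit.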

| Structure (SMILES) | EC50 ([1]; read-out: hSST2 cAMP Avg EC50) [nM] | EC50 ([2]; read-out: Internalization EC50) [nM] | EC50 ([3]; 2 h) [nM] | EC50 ([1]; hSST2 cAMP Avg EC50 (nM)) [nM] | EC50 ([2]; Internalization EC50 (nM)) [nM] | EC50 ([3]; 2 h treatment, washout, additional 70 h, read-out: H524 EC50) [nM] |
| --- | --- | --- | --- | --- | --- | --- |
| CC[C@H](C)[C@@H]([C@@H](CC(=O)N1CCC[C@H]1[C@H](OC)[C@@H](C)C(=O)N[C@H](C)[C@@H](O)c1ccccc1)OC)N(C)C(=O)[C@@H](NC(=O)[C@H](C(C)C)N(C)C(=O)OCc1ccc(NC(=O)[C@H](CCCNC(N)=O)NC(=O)[C@@H](NC(=O)[C@H](CCC(N)=O)NC(=O)CCOCCC(=O)NCCNc2ncc(-c3cc(C)cc(F)c3)c(N3CCC(N)CC3)c2-c2nc3ccc(Cl)cc3[nH]2)C(C)C)cc1)C(C)C [Compound 56] (X1-QV[Cit][PABC][NMeV]V[Dil][Dolaproine]-X2) | 0.23 | 15.1 | 10.3 |  |  |  |
| CC[C@H](C)[C@@H]([C@@H](CC(=O)N1CCC[C@H]1[C@H](OC)[C@@H](C)C(=O)N[C@H](C)[C@@H](O)c1ccccc1)OC)N(C)C(=O)[C@@H](NC(=O)[C@H](C(C)C)N(C)C(=O)OCc1ccc(NC(=O)[C@H](CCCNC(N)=O)NC(=O)[C@@H](NC(=O)[C@H](CCC(N)=O)NC(=O)CCOCCC(=O)NCCNc2ncc(-c3cc(C)cc(F)c3)c(N3CCC(N)CC3)c2-c2nc3ccc(Cl)cc3[nH]2)C(C)C)cc1C(=O)NCCN)C(C)C [Compound 57] | 0.38 | 5.7 | 15 |  |  |  |
| CC[C@H](C)[C@@H]([C@@H](CC(=O)N1CCC[C@H]1[C@H](OC)[C@@H](C)C(=O)N[C@H](C)[C@@H](O)c1ccccc1)OC)N(C)C(=O)[C@@H](NC(=O)[C@H](C(C)C)N(C)C(=O)OCc1ccc(NC(=O)[C@H](CCCNC(N)=O)NC(=O)[C@@H](NC(=O)[C@H](CCC(N)=O)NC(=O)CCOCCOCCOCCOCCC(=O)NCCNc2ncc(-c3cc(C)cc(F)c3)c(N3CCC(N)CC3)c2-c2nc3ccc(Cl)cc3[nH]2)C(C)C)cc1C(=O)NCCN)C(C)C [Compound 58] | 0.37 | 5 | 11 |  |  |  |
| CC[C@H](C)[C@@H]([C@@H](CC(=O)N1CCC[C@H]1[C@H](OC)[C@@H](C)C(=O)N[C@H](C)[C@@H](O)c1ccccc1)OC)N(C)C(=O)[C@@H](NC(=O)[C@H](C(C)C)N(C)C(=O)OCc1ccc2cc1C(=O)NCCNC(=O)CC[C@H](NC(=O)CCOCCC(=O)NCCNc1ncc(-c3cc(C)cc(F)c3)c(N3CCC(N)CC3)c1-c1nc3ccc(Cl)cc3[nH]1)C(=O)N[C@@H](C(C)C)C(=O)N[C@@H](CCCNC(N)=O)C(=O)N2)C(C)C [Compound 59] | 0.35 | 6.5 | 14 |  |  |  |
| CC[C@H](C)[C@@H]([C@@H](CC(=O)N1CCC[C@H]1[C@H](OC)[C@@H](C)C(=O)N[C@H](C)[C@@H](O)c1ccccc1)OC)N(C)C(=O)[C@@H](NC(=O)[C@H](C(C)C)N(C)C(=O)OCc1ccc(NC(=O)[C@H](CCCNC(N)=O)NC(=O)[C@@H](NC(=O)[C@H](CCC(N)=O)NC(=O)CCOCCOCCOCCOCCC(=O)NCCNc2ncc(-c3cc(C)cc(F)c3)c(N3CCC(N)CC3)c2-c2nc3ccc(Cl)cc3[nH]2)C(C)C)cc1C(=O)NC)C(C)C [Compound 60] | 0.1 | 13 | 35 |  |  |  |
| CC[C@H](C)[C@@H]([C@@H](CC(=O)N1CCC[C@H]1[C@H](OC)[C@@H](C)C(=O)N[C@H](C)[C@@H](O)c1ccccc1)OC)N(C)C(=O)[C@@H](NC(=O)[C@H](C(C)C)N(C)C(=O)OCc1ccc(NC(=O)[C@H](CCCNC(N)=O)NC(=O)[C@@H](NC(=O)CCOCCOCCOCCOCCC(=O)NCCNc2ncc(-c3cc(C)cc(F)c3)c(N3CCC(N)CC3)c2-c2nc3ccc(Cl)cc3[nH]2)C(C)C)c(O[C@@H]2O[C@H](C(=O)O)[C@@H](O)[C@H](O)[C@H]2O)c1)C(C)C [Compound 62] | 0.2 | 14 | 61.2 |  |  |  |
| CC[C@H](C)[C@@H]([C@@H](CC(=O)N1CCC[C@H]1[C@H](OC)[C@@H](C)C(=O)N[C@H](C)[C@@H](O)c1ccccc1)OC)N(C)C(=O)[C@@H](NC(=O)[C@H](C(C)C)N(C)C(=O)OCc1ccc(NC(=O)[C@H](CCCNC(N)=O)NC(=O)[C@@H](NC(=O)CCCCC(=O)NCCNc2ncc(-c3cc(C)cc(F)c3)c(N3CCC(N)CC3)c2-c2nc3ccc(Cl)cc3[nH]2)C(C)C)c(O[C@@H]2O[C@H](C(=O)O)[C@@H](O)[C@H](O)[C@H]2O)c1)C(C)C [Compound 63] | 0.16 | 16 | 13 |  |  |  |
| CC[C@H](C)[C@@H]([C@@H](CC(=O)N1CCC[C@H]1[C@H](OC)[C@@H](C)C(=O)N[C@H](C)[C@@H](O)c1ccccc1)OC)N(C)C(=O)[C@@H](NC(=O)[C@H](C(C)C)N(C)C(=O)OCc1ccc(NC(=O)CCOCCOCCOCCOCCC(=O)NCCNc2ncc(-c3cc(C)cc(F)c3)c(N3CCC(N)CC3)c2-c2nc3ccc(Cl)cc3[nH]2)c(O[C@@H]2O[C@H](C(=O)O)[C@@H](O)[C@H](O)[C@H]2O)c1)C(C)C [Compound 64] | 0.1 | 12 | 9500 |  |  |  |
| CC[C@@]1(O)C(=O)OCc2c1cc1n(c2=O)Cc2c-1nc1cc(F)c(C)c3c1c2[C@@H](NC(=O)OCc1ccc(NC(=O)[C@H](C)NC(=O)[C@@H](NC(=O)CCOCCC(=O)NCCNc2ncc(-c4cc(C)cc(F)c4)c(N4CCC(N)CC4)c2-c2nc4ccc(Cl)cc4[nH]2)C(C)C)c(O[C@@H]2O[C@H](C(=O)O)[C@@H](O)[C@H](O)[C@H]2O)c1)CC3 [Compound 65] |  |  |  | 0.27 | 1.5 | 250 |
| CC[C@H](C)[C@@H]([C@@H](CC(=O)N1CCC[C@H]1[C@H](OC)[C@@H](C)C(=O)N[C@H](C)[C@@H](O)c1ccccc1)OC)N(C)C(=O)[C@@H](NC(=O)[C@H](C(C)C)N(C)C(=O)OCc1ccc(NC(=O)[C@H](C)NC(=O)[C@@H](NC(=O)CCOCCC(=O)N[C@@H](CS(=O)(=O)O)C(=O)NCCNc2ncc(-c3cc(C)cc(F)c3)c(N3CCC(N)CC3)c2-c2nc3ccc(Cl)cc3[nH]2)C(C)C)c(O[C@@H]2O[C@H](CO)[C@@H](O)[C@H](O)[C@H]2O)c1)C(C)C [Compound 66] | 0.13 | 15 | 300 |  |  |  |
| CC[C@H](C)[C@@H]([C@@H](CC(=O)N1CCC[C@H]1[C@H](OC)[C@@H](C)C(=O)N[C@H](C)[C@@H](O)c1ccccc1)OC)N(C)C(=O)[C@@H](NC(=O)[C@H](C(C)C)N(C)C(=O)OCc1ccc(NC(=O)[C@H](C)NC(=O)[C@@H](NC(=O)[C@H](CCC(=O)O)NC(=O)CCOCCC(=O)NCCNc2ncc(-c3cc(C)cc(F)c3)c(N3CCC(N)CC3)c2-c2nc3ccc(Cl)cc3[nH]2)C(C)C)c(O[C@@H]2O[C@H](CO)[C@@H](O)[C@H](O)[C@H]2O)c1)C(C)C [Compound 67] (X1-EVA[PABC(3-O-βDGlc)][NMeV]V[Dil][Dolaproine]-X2) | 0.19 | 6.7 | 41 |  |  |  |
| CC[C@H](C)[C@@H]([C@@H](CC(=O)N1CCC[C@H]1[C@H](OC)[C@@H](C)C(=O)N[C@H](C)[C@@H](O)c1ccccc1)OC)N(C)C(=O)[C@@H](NC(=O)[C@H](C(C)C)N(C)C(=O)OCc1ccc(NC(=O)[C@H](CCCNC(N)=O)NC(=O)[C@@H](NCCOCCOCCOCCOCCC(=O)NCCNc2ncc(-c3cc(C)cc(F)c3)c(N3CCC(N)CC3)c2-c2nc3ccc(Cl)cc3[nH]2)C(C)C)cc1)C(C)C [Compound 69] | 0.25 | 7.8 | 14.5 |  |  |  |
| CC[C@H](C)[C@@H]([C@@H](CC(=O)N1CCC[C@H]1[C@H](OC)[C@@H](C)C(=O)N[C@H](C)[C@@H](O)c1ccccc1)OC)N(C)C(=O)[C@@H](NC(=O)[C@H](C(C)C)N(C)C(=O)OCc1ccc(NC(=O)[C@H](CCCNC(N)=O)NC(=O)[C@@H](NC(=O)CCOCCC(=O)N[C@@H](CS(=O)(=O)O)C(=O)NCCNc2ncc(-c3cc(C)cc(F)c3)c(N3CCC(N)CC3)c2-c2nc3ccc(Cl)cc3[nH]2)C(C)C)cc1)C(C)C [Compound 70] | 0.44 | 17 | 68 |  |  |  |
